Experiment [1] has as its system intracellular T. cruzi amastigotes. The experiment is described as follows: Primary high-content intracellular T. cruzi amastigote assay. The experiment is classed as cell-based, Trypanosoma cruzi (Silvio X10/7 A1) in Vero cells. The conditions noted are these: for EC50: Trypanosoma cruzi, read-out: pEC50 (cruzi) (converted). As for the experimental part:
(§1) The compounds tested were obtained from the NIH (Clinical Collection) and from SelleckChem (FDA-approved drug library). Compounds were dispensed into black 384-well assay plates (Corning) by acoustic dispensing (LabCyte ECHO). […] Potencies are reported as pEC50 (-LOG(EC50[M])).
(§2) For the primary intracellular assay the infection conditions were chosen so that no trypomastigote egress occurs during the compound incubation time. First, Vero cells were infected overnight with tissue culture derived T. cruzi trypomastigotes in T225 tissue culture flasks (MOI 5). Next, any remaining free trypomastigotes were washed away with serum free MEM and the infected Vero cells were harvested by trypsinisation. The infected Vero cells were then plated into 384-well plates containing the compounds to be tested, at 4000 cells per well in MEM media with 1% FCS. […] The plates were imaged on a Perkin Elmer Operetta high-content imaging system using a 20x objective. Images were analysed using the Columbus system (Perkin Elmer). The algorithm for the primary assay first identified the Vero nuclei followed by demarcation of the cytoplasm and identification of intracellular amastigotes. This algorithm reported mean number of parasites per Vero cell and total number of Vero cells. Data analysis was as described in [22]. […] Hits from the primary screen were selected based on the following criteria: T. cruzi activity (percent inhibition) > (median T. cruzi percent inhibition + 3 x robust Standard Deviation) and Vero activity (percent inhibition) < (median percent Vero inhibition + 3 x robust Standard Deviation).

The subject of a further experiment is Vero cells. The experiment is described as follows: Host cell toxicity read-out of the primary assay (Vero cell count). The conditions noted are these: for EC50: Chlorocebus sabaeus, Vero, read-out: pEC50 (Vero) (converted). The experiment is classed as cell-based. As for the experimental part:
as §1, §2

[2] abbreviates: hits of the bio-actives screen, 10-point dose-response, top concentration 50μM, 72h.

Where two headings read alike, the source gives them in different places.

From paper PMC4833300, “Identification of Trypanocidal Activity for Known Clinical Compounds Using a New Trypanosoma cruzi Hit-Discovery Screening Cascade” (PLoS Neglected Tropical Diseases, 2016) come the findings set out here.

For `CC(C)(C)C(=O)OCOP(=O)(COCCn1cnc2c(N)ncnc21)OCOC(=O)C(C)(C)C` [Adefovir Dipivoxil], the EC50 was 6.31 µM in experiment [1] (setting [2]) and 15.8 µM in the experiment on Vero cells (setting [2]).

Regarding `Cc1ccc(NC(=O)c2ccc(CN3CCN(C)CC3)cc2)cc1Nc1nc(-c2cccnc2)cs1` [Masitinib], the EC50 in experiment [1] (setting [2]) was 2 µM; with Vero cells (setting [2]) it was 7.94 µM.

Regarding `Oc1cc(Cl)ccc1Oc1ccc(Cl)cc1Cl` [Triclosan], the EC50 is 7.94 µM in experiment [1] (72 h) and 10 µM with Vero cells (72 h).

Regarding `C=C(C)CN1CC[C@]23c4c5ccc(O)c4O[C@H]2c2[nH]c4ccccc4c2C[C@@]3(O)C1C5.Cl.O` [SDM25N], in experiment [1] (setting [2]), the “pEC50 (cruzi)” value was determined as 5.2. Also, the “pEC50 (Vero)” value in the experiment on Vero cells (setting [2]) was 4.8.

Consider `CCCCC/C=C\C/C=C\C/C=C\C/C=C\CCCC(=O)Nc1ccc(O)cc1` [N-arachidonoylaminophenol], for which, in experiment [1] (setting [2]), the “pEC50 (cruzi)” value came out at 5.7. The “pEC50 (Vero)” value in the experiment with Vero cells (setting [2]) is given as 4.8.

As to `CO[C@H]1/C=C/O[C@@]2(C)Oc3c(C)c(O)c4c(O)c(c(/C=N/N5CCN(C6CCCC6)CC5)c(O)c4c3C2=O)NC(=O)/C(C)=C\C=C\[C@H](C)[C@H](O)[C@@H](C)[C@@H](O)[C@@H](C)[C@H](OC(C)=O)[C@@H]1C` [Rifapentine], the EC50 in experiment [1] (setting [2]) was 10 µM; with Vero cells (setting [2]), 15.8 µM.

In the case of `CN1CCN(CC/C=C2/c3ccccc3Sc3ccc(S(=O)(=O)N(C)C)cc32)CC1` [Thiothixene], the EC50 is 5.01 µM in experiment [1] (setting [2]) and 7.94 µM in the experiment with Vero cells (setting [2]).

On to `C[C@]12CC[C@@H]3c4ccc(O)cc4C[C@@H](CCCCCCCCC[S+]([O-])CCCC(F)(F)C(F)(F)F)[C@H]3[C@@H]1CC[C@@H]2O` (stereo partly drawn) [Fulvestrant], for which the results for the EC50 (in experiment [1] (setting [2]); in the experiment with Vero cells (setting [2])) were 5.01 µM and 15.8 µM, respectively.

For `CC(COc1ccccc1Cc1ccccc1)N1CCCCC1` (stereo not drawn) [Benproperine], the EC50 is 1.26 µM in experiment [1] (setting [2]) and 15.8 µM with Vero cells (setting [2]).

For `O=C1[C@H]2CCCC[C@H]2C(=O)N1CCCCN1CCN(c2nsc3ccccc23)CC1` [Perospirone], the values for the EC50 (in experiment [1] (setting [2]); in the experiment on Vero cells (setting [2])) were 6.31 µM and 15.8 µM, respectively.

As to `CN1CCN(c2nc3cc(C(F)(F)F)ccc3n3cccc23)CC1.O=C(O)/C=C\C(=O)O.O=C(O)/C=C\C(=O)O` [CGS 12066B], the “pEC50 (cruzi)” value in experiment [1] (setting [2]) stood at 5.5. In the experiment with Vero cells (setting [2]), the “pEC50 (Vero)” value came to 4.8.

On to `c1ccc2c(c1)Nc1ccccc1S2` [Phenothiazine], for which the values for the EC50 (in experiment [1] (72 h); with Vero cells (72 h)) were 2.51 µM and 15.8 µM, respectively.

In the case of `CCOc1nc2cccc(C(=O)OC(C)OC(=O)OC3CCCCC3)c2n1Cc1ccc(-c2ccccc2-c2nnn[nH]2)cc1` (stereo not drawn) [Candesartan cilexetil], the EC50 in experiment [1] (setting [2]) is 6.31 µM; in the experiment with Vero cells (setting [2]), 12.6 µM.

Consider `Fc1ccc([C@@H]2CCNC[C@H]2COc2ccc3c(c2)OCO3)cc1` [Paroxetine], for which the EC50 is 5.01 µM in experiment [1] (setting [2]) and 12.6 µM in the experiment on Vero cells (setting [2]).

In the case of `C[C@@H]1CN(CCCn2c3ccccc3c3ccccc32)C[C@H](C)N1` [Rimcazole], the results for the EC50 (in experiment [1] (setting [2]); with Vero cells (setting [2])) were 5.01 µM and 10 µM, respectively.

Turning to `CN(C)CCCN1c2ccccc2Sc2ccc(Cl)cc21` [Chlorpromazine], the EC50 in experiment [1] (setting [2]) is 3.98 µM; in the experiment with Vero cells (setting [2]) it was 10 µM.

On to `COc1ccccc1OCCNCC(O)COc1cccc2[nH]c3ccccc3c12` (stereo not drawn) [Carvedilol], for which the EC50 in experiment [1] (setting [2]) is 5.01 µM; in the experiment on Vero cells (setting [2]), 15.8 µM.

With `COC(=O)C1=C(C)NC(C)=C(C(=O)OCCN(C)Cc2ccccc2)C1c1cccc([N+](=O)[O-])c1` (stereo not drawn) [Cardene], the EC50 is 3.98 µM in experiment [1] (setting [2]) and 15.8 µM in the experiment on Vero cells (setting [2]).

Consider `NC(=O)N/N=C/c1ccc([N+](=O)[O-])o1` [Nitrofurazone], for which the EC50 in experiment [1] (setting [2]) is 1 µM; in the experiment on Vero cells (setting [2]), 15.8 µM.

Turning to `CNC1CC(c2ccc(Cl)c(Cl)c2)c2ccccc21` (stereo not drawn) [Indatraline], the figures for the EC50 (in experiment [1] (72 h); in the experiment with Vero cells (72 h)) were 5.01 µM and 12.6 µM, respectively.

`C[C@]12C=CC(=O)N[C@@H]1CC[C@@H]1[C@@H]2CC[C@]2(C)[C@@H](C(=O)Nc3cc(C(F)(F)F)ccc3C(F)(F)F)CC[C@@H]12` [Dutasteride]: the EC50 (in experiment [1] (72 h); in the experiment on Vero cells (72 h)) was 15.8 µM in each case.
